The Ki is the dissociation constant of the complex between target and ligand, obtained from inhibition or displacement.

A value given as a limit tells only on which side of the number the result lay.

The record followed here is patent US9221796B2, “Selective NR2B antagonists” (BRISTOL-MYERS SQUIBB COMPANY, priority 2014, dated 2015).

The target of this experiment is NR2B-subtype NMDA receptors (Rattus norvegicus (Rat), UniProt P35439+Q00960). Briefly: Radioligand binding assay (3H Ro 25-6981 competition, forebrain membranes). The settings on record: 3H Ro 25-6981 (4 nM), read-out: NR2B Binding Ki. How it is done: Radioligand Binding Assay. […] Buchy D; Klingelschmidt A; Messer J; Bleuel Z; Kemp J A; Richards J G. […] Thawed brains were homogenized using a Dounce homogenizer and centrifuged at 48000×g for 20 min. The pellet was resuspended in cold buffer and homogenized again using a Dounce homogenizer. […] After incubation for 1 hr at room temperature, the membrane bound radioligand was harvested on to GF/B filter plates (treated with 0.5% PEI for 1 hr at room temperature). The filter plates were dried at 50° C. for 20 mins, incubated with microscint 20 for 10 minutes and finally, the counts were read on TopCount (Perkin Elmer). […] CPM values were converted to % inhibition and the concentration response curves were plotted using custom made software. Each experiment was repeated at least twice to obtain the final binding Ki values for experimental compounds.
Sequence of NR2B-subtype NMDA receptors (Q00960 27-1482, other chains not shown): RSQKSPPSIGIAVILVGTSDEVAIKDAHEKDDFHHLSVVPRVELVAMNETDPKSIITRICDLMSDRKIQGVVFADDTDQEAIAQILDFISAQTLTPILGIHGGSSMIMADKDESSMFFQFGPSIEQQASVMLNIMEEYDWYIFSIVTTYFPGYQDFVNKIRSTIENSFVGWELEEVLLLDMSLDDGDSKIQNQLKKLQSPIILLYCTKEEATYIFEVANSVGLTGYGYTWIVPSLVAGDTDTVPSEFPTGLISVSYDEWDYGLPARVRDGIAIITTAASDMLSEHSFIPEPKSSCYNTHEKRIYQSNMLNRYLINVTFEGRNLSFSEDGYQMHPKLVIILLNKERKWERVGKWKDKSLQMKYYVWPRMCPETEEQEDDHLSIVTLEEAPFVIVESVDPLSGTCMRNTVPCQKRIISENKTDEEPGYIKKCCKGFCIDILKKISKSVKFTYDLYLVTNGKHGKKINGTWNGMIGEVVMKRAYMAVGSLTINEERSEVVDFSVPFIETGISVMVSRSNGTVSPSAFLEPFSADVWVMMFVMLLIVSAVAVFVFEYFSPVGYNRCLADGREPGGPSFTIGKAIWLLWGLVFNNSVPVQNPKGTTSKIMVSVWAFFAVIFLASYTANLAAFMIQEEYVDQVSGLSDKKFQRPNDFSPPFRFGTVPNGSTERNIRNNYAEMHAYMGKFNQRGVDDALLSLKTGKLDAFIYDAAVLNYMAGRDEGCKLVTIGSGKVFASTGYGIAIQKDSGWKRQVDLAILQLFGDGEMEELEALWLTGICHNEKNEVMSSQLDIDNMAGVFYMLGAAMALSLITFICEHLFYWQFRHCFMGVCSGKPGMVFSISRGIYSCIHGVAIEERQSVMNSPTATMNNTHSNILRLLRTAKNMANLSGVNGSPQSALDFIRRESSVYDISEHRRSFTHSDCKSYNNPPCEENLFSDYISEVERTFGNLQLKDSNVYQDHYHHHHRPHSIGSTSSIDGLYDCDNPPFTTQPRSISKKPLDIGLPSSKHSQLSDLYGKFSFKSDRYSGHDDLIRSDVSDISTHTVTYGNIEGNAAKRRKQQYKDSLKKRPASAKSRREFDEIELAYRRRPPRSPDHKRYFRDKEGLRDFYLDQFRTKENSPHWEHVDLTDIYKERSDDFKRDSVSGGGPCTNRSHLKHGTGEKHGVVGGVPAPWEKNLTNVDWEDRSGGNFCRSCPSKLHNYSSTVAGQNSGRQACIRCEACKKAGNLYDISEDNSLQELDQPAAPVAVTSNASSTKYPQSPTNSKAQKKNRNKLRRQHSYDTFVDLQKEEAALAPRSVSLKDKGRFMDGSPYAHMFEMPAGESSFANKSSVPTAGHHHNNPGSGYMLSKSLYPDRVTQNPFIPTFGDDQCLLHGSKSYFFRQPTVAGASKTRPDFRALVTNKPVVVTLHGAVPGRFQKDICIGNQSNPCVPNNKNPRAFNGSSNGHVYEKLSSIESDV

In the case of `Cc1ccc(CN2CCC(N3CC(c4ccc(O)cc4)C3)C2=O)cc1F` (centres unmarked) [Example 20, 1-(3-Fluoro-4-methylbenzyl)-3-(3-(4-hydroxyphenyl)azetidin-1-yl)pyrrolidin-2-one], the Ki turned out to be 43 nM.

Take `O=C1C(N2CCC(c3ccc(O)cc3)CC2)CCN1Cc1ccc(Cl)c(F)c1` (centres unmarked) [Example 15, 1-(4-Chloro-3-fluorobenzyl)-3-(4-(4-hydroxyphenyl)piperidin-1-yl)pyrrolidin-2-one]: the Ki amounted to 12 nM.

On to `O=C1C(N2CCC(c3ccc(O)cc3)C(F)(F)C2)CCN1Cc1ccc(C(F)(F)F)cc1` (single isomer, unassigned) [Example 53, P-2, 3-(3,3-Difluoro-4-(4-hydroxyphenyl)piperidin-1-yl)-1-(4-(trifluoromethyl)-benzyl)pyrrolidin-2-one], for which the Ki came to 5.8 nM.

Turning to `Cc1cccc(CN2CCC(N3CCC(c4ccc(O)cc4)C(F)(F)C3)C2=O)c1` (centres unmarked) [Example 93, 3-(3,3-Difluoro-4-(4-hydroxyphenyl)piperidin-1-yl)-1-(3-methylbenzyl)pyrrolidin-2-one], the Ki amounted to 67 nM.

On to `O=C1[C@@H](N2CCC(c3ccc(O)cc3)C(F)(F)C2)CCN1Cc1ccc(Cl)cc1` (stereo partly drawn) [Example 106, P-1, (3S)-1-(4-Chlorobenzyl)-3-(3,3-difluoro-4-(4-hydroxyphenyl)piperidin-1-yl)pyrrolidin-2-one], for which the Ki was 990 nM.

For `O=C1[C@H](N2CCC(c3ccc(O)cc3)C(F)(F)C2)CCN1Cc1ccc(Cl)c(F)c1` (single isomer, unassigned) [Example 107, P-2], the Ki came out at 7.7 nM.

In the case of `O=C1C(N2CCC(c3ccc(O)cc3)C(O)C2)CCN1Cc1ccc(F)cc1` (centres unmarked) [Example 8, 1-(4-Fluorobenzyl)-3-(3-hydroxy-4-(4-hydroxyphenyl)piperidin-1-yl)pyrrolidin-2-one], the Ki amounted to 420 nM.

On to `O=C1C(N2CCC(c3ccc(O)cc3)C(O)C2)CCN1Cc1ccc(F)cc1` (single isomer, unassigned) [Example 9d, 1-(4-Fluorobenzyl)-3-(3-hydroxy-4-(4-hydroxyphenyl)piperidin-1-yl)pyrrolidin-2-one], for which the Ki was found to be 160 nM.

In the case of `Cc1cc(O)ccc1C1CCN(C2CCN(Cc3ccccc3)C2=O)CC1` (centres unmarked) [Example 29, 1-Benzyl-3-(4-(4-hydroxy-2-methylphenyl)piperidin-1-yl)pyrrolidin-2-one], the Ki amounted to 78 nM.

In the case of `O=C1[C@@H](N2CCC(c3ccc(O)cc3)CC2)CCN1Cc1ccc(Cl)cc1` [Example 18a, (S)-1-(4-Chlorobenzyl)-3-(4-(4-hydroxyphenyl)piperidin-1-yl)pyrrolidin-2-one], the Ki worked out at 170 nM.

On to `Cc1ccc(CN2CCC(N3CCC(c4ccc(O)cc4)CC3)C2=O)cc1F` (centres unmarked) [Example 19, 1-(3-Fluoro-4-methylbenzyl)-3-(4-(4-hydroxyphenyl)piperidin-1-yl)pyrrolidin-2-one], for which the Ki was 3.9 nM.

For the molecule `Cc1ccc(CN2CC[C@@H](N3CC(c4ccc(O)cc4)C3)C2=O)cc1F` [Example 21a, (R)-1-(3-Fluoro-4-methylbenzyl)-3-(3-(4-hydroxyphenyl)azetidin-1-yl)pyrrolidin-2-one], the Ki amounted to 37 nM.

Regarding `O=C1[C@H](N2CC[C@H](c3ccc(O)cc3)[C@@H](F)C2)CCN1Cc1ccc(C(F)(F)F)cc1` [Example 88, (R)-3-((3R,4R)-3-Fluoro-4-(4-hydroxyphenyl)piperidin-1-yl)-1-(4-(trifluoromethyl)benzyl)-pyrrolidin-2-one], the Ki was 5.3 nM.

For `O=C1[C@@H](N2CCC(c3ccc(O)cc3)CC2)CCN1Cc1ccccc1` [Example 13a, (S)-1-Benzyl-3-(4-(4-hydroxyphenyl)piperidin-1-yl)pyrrolidin-2-one], the inhibition constant Ki amounted to 41 nM.

On to `O=C1[C@H](N2CCC(c3ccc(O)cc3)CC2)CCN1Cc1ccc(O)c(O)c1` [Example 43, (R)-1-(3,4-Dihydroxybenzyl)-3-(4-(4-hydroxyphenyl)piperidin-1-yl)pyrrolidin-2-one], for which the Ki worked out at 150 nM.

Consider `C[C@@H](c1ccc(F)cc1)N1CCC(N2CCC(c3ccc(O)cc3)C(F)(F)C2)C1=O` (single isomer, unassigned) [Example 56, P-3], for which the Ki was not below 5000 nM.

As to `O=C1[C@H](N2CCC(c3ccc(O)cc3)CC2)CCN1Cc1ccccc1` [Example 13b, (R)-1-Benzyl-3-(4-(4-hydroxyphenyl)piperidin-1-yl)pyrrolidin-2-one], the inhibitory constant (Ki) came out at 1.6 nM.

In the case of `O=C1[C@H](N2CCC(c3ccc(O)cc3)CC2)CCN1Cc1ccc(F)c(F)c1` [Example 6b, (R)-1-(3,4-Difluorobenzyl)-3-(4-(4-hydroxyphenyl)piperidin-1-yl)pyrrolidin-2-one], the Ki turned out to be 4.7 nM.

As to `O=C1[C@@H](N2CC[C@@H](c3ccc(O)c(F)c3)[C@H](F)C2)CCN1Cc1ccc(C(F)F)cc1` [Example 117, P-1, (S)-1-(4-(difluoromethyl)benzyl)-3-((3S,4S)-3-fluoro-4-(3-fluoro-4-hydroxyphenyl)piperidin-1-yl)pyrrolidin-2-one], the Ki was 79 nM.

Consider `Cc1ccc(CN2CCC(N3CCC(c4ccc(O)cc4)CC3)C2=O)cc1C` (centres unmarked) [Example 26, 1-(3,4-Dimethylbenzyl)-3-(4-(4-hydroxyphenyl)piperidin-1-yl)pyrrolidin-2-one], for which the Ki came out at 31 nM.

On to `O=C1[C@@H](N2CC[C@@H](c3ccc(O)cc3)[C@H](F)C2)CCN1c1ccc(OC(F)F)c(Cl)c1` [Example 62, (S)-1-(3-Chloro-4-(difluoromethoxy)phenyl)-3-((3S,4S)-3-fluoro-4-(4-hydroxyphenyl)-piperidin-1-yl)pyrrolidin-2-one], for which the Ki worked out at 6.7 nM.

Turning to `Cc1ccc(CN2CC[C@@H](N3CC(c4ccc(O)cc4)C3)C2=O)cc1` [Example 28b, (R)-3-(3-(4-Hydroxyphenyl)azetidin-1-yl)-1-(4-methylbenzyl)-pyrrolidin-2-one], the Ki came to 10 nM.

Turning to `O=C1C(N2CC[C@H](c3ccc(O)cc3)[C@@H](F)C2)CCN1Cc1ccc(F)c(Cl)c1` (stereo partly drawn) [Example 89, 1-(3-Chloro-4-fluorobenzyl)-3-((3R,4R)-3-fluoro-4-(4-hydroxyphenyl)piperidin-1-yl)pyrrolidin-2-one], the Ki was found to be 200 nM.

As for `Cc1ccc(CN2CC[C@@H](N3CC[C@@H](c4ccc(O)c(F)c4)[C@H](F)C3)C2=O)cc1` [Example 115, (R)-3-((3S,4S)-3-fluoro-4-(3-fluoro-4-hydroxyphenyl)piperidin-1-yl)-1-(4-methylbenzyl)pyrrolidin-2-one], the Ki was 2.7 nM.

Regarding `O=C1C(N2CCC(c3ccc(O)cc3)C(F)(F)C2)CCN1Cc1ccc(C(F)(F)F)cc1` (centres unmarked) [Example 110, 3-(3,3-Difluoro-4-(4-hydroxyphenyl)piperidin-1-yl)-1-(4-(trifluoromethyl)benzyl)-pyrrolidin-2-one], the Ki was found to be 36 nM.

With `O=C1[C@@H](N2CCC(c3ccc(O)cc3)C(F)(F)C2)CCN1c1ccc(OC(F)F)c(Cl)c1` (stereo partly drawn) [Example 101, P-1, (3S)-1-(3-Chloro-4-(difluoromethoxy)phenyl)-3-(3,3-difluoro-4-(4-hydroxyphenyl)-piperidin-1-yl)pyrrolidin-2-one], the Ki was 13 nM.

On to `O=C1C(N2CC(c3ccc(O)cc3)C2)CCN1Cc1ccc(F)cc1` (centres unmarked) [Example 11, 1-(4-Fluorobenzyl)-3-(3-(4-hydroxyphenyl)azetidin-1-yl)pyrrolidin-2-one], for which the Ki was found to be 510 nM.

Take `O=C1C(N2CC[C@@H](c3ccc(O)cc3)[C@H](F)C2)CCN1Cc1ccc(Cl)c(Cl)c1` (stereo partly drawn) [Example 70, 1-(3,4-Dichlorobenzyl)-3-((3S,4S)-3-fluoro-4-(4-hydroxyphenyl)piperidin-1-yl)pyrrolidin-2-one]: the Ki is 180 nM.

Consider `O=C1C(N2CCC(c3ccc(O)cc3)C(O)C2)CCN1Cc1ccc(F)cc1` (single isomer, unassigned) [Example 9c, 1-(4-Fluorobenzyl)-3-(3-hydroxy-4-(4-hydroxyphenyl)-piperidin-1-yl)pyrrolidin-2-one], for which the Ki is 5000 nM.

As to `O=C1[C@@H](N2CC[C@@H](c3ccc(O)cc3)[C@H](F)C2)CCN1Cc1ccc(C(F)F)cc1` [Example 114, P-2, (S)-1-(4-(difluoromethyl)benzyl)-3-((3S,4S)-3-fluoro-4-(4-hydroxyphenyl)piperidin-1-yl)pyrrolidin-2-one], the Ki worked out at 180 nM.

As to `O=C1[C@H](N2CC[C@H](c3ccc(O)cc3)[C@@H](F)C2)CCN1Cc1ccccc1` [Example 75, (R)-1-Benzyl-3-((3R,4R)-3-fluoro-4-(4-hydroxyphenyl)-piperidin-1-yl)pyrrolidin-2-one], the Ki is 8 nM.

Take `Cc1ccc(CN2CC[C@@H](N3CC[C@H](c4ccc(O)cc4)[C@@H](F)C3)C2=O)cc1F` [Example 47, P-4, (R)-3-((3R,4R)-3-fluoro-4-(4-hydroxyphenyl)piperidin-1-yl)-1-(3-fluoro-4-methylbenzyl)pyrrolidin-2-one]: the Ki came to 3.4 nM.

Turning to `C[C@@H](c1ccc(F)cc1)N1CC[C@@H](N2CC[C@@H](c3ccc(O)cc3)[C@H](F)C2)C1=O` [Example 50, P-4, (R)-3-((3S,4S)-3-fluoro-4-(4-hydroxyphenyl)piperidin-1-yl)-1-((S)-1-(4-fluorophenyl)-ethyl)pyrrolidin-2-one], the Ki worked out at 1300 nM.

On to `O=C1C(N2CCCC(c3ccc(O)cc3)C2)CCCN1Cc1ccc(Cl)cc1` (centres unmarked) [Example 42, 1′-(4-Chlorobenzyl)-3-(4-hydroxyphenyl)-[1,3′-bipiperidin]-2′-one], for which the Ki was found to be 720 nM.

As to `Cc1ccc(CN2CC[C@@H](N3CC[C@@H](c4ccc(O)c(F)c4)[C@H](F)C3)C2=O)cc1F` [Example 45, P-2, (R)-3-((3S,4S)-3-fluoro-4-(3-fluoro-4-hydroxyphenyl)piperidin-1-yl)-1-(3-fluoro-4-methylbenzyl)pyrrolidin-2-one], the Ki turned out to be 3.1 nM.
